Assay: xn = mol fraction of the nth substance listed
Conditions: Fluid (supercritical or subcritical phases), Buoyancy - hydrostatic balance with magnetic suspension - one sinker

[C-]#[O+] [carbon monoxide] + N#N
mass density [kg/m3]
Conditions | x1 = 0.04999 | x1 = 0.1002
324.98 K, 9998.7 kPa | – | 101.905
324.98 K, 10007 kPa | 101.939 | –
324.98 K, 10997 kPa | 111.619 | –
324.98 K, 11997 kPa | – | 121.32
324.98 K, 12000 kPa | 121.293 | –
324.98 K, 12999 kPa | 130.817 | –
324.98 K, 13996 kPa | – | 140.254
324.98 K, 15957 kPa | 158.239 | –
324.98 K, 15995 kPa | – | 158.639
324.98 K, 17995 kPa | 176.379 | –
324.98 K, 17996 kPa | – | 176.463
324.98 K, 19931 kPa | 193.033 | –
324.98 K, 19948 kPa | – | 193.262
324.99 K, 14116 kPa | 141.303 | –
349.96 K, 991.96 kPa | – | 9.538
349.96 K, 2999.2 kPa | – | 28.731
349.96 K, 4997.9 kPa | – | 47.663
349.96 K, 6997.9 kPa | – | 66.355
349.96 K, 8997.6 kPa | – | 84.725
349.96 K, 10998 kPa | – | 102.742
349.96 K, 12999 kPa | – | 120.335
349.96 K, 14996 kPa | – | 137.446
349.96 K, 16994 kPa | – | 154.09
349.96 K, 18214 kPa | – | 164
349.97 K, 991.18 kPa | 9.53 | –
349.97 K, 993.39 kPa | – | 9.551
349.97 K, 1959 kPa | 18.808 | –
349.97 K, 1978.8 kPa | – | 18.999
349.97 K, 3922.5 kPa | – | 37.508
349.97 K, 4004.8 kPa | 38.283 | –
349.97 K, 5997.7 kPa | – | 57.048
349.97 K, 5998.2 kPa | 57.037 | –
349.97 K, 7998.9 kPa | – | 75.601
349.97 K, 8018.6 kPa | 75.757 | –
349.97 K, 9998.3 kPa | – | 93.794
349.97 K, 10022 kPa | 93.976 | –
349.97 K, 11997 kPa | – | 111.586
349.97 K, 12018 kPa | 111.731 | –
349.97 K, 13995 kPa | – | 128.938
349.97 K, 13997 kPa | 128.911 | –
349.97 K, 15994 kPa | 145.784 | 145.829
349.97 K, 17992 kPa | 162.172 | 162.217
349.97 K, 19655 kPa | 175.42 | –
349.97 K, 19959 kPa | – | 177.859
374.95 K, 1995 kPa | – | 17.848
374.95 K, 2998.2 kPa | – | 26.743
374.95 K, 4980.9 kPa | – | 44.17
374.95 K, 6997.6 kPa | – | 61.627
374.95 K, 8997.4 kPa | – | 78.624
374.95 K, 10995 kPa | – | 95.265
374.95 K, 12994 kPa | – | 111.524
374.95 K, 15016 kPa | – | 127.569
374.95 K, 16990 kPa | – | 142.823
374.95 K, 19967 kPa | – | 165.012
374.96 K, 991.14 kPa | 8.887 | –
374.96 K, 993.41 kPa | – | 8.908
374.96 K, 1989.3 kPa | 17.794 | –
374.96 K, 3998.5 kPa | 35.556 | –
374.96 K, 4004.8 kPa | – | 35.621
374.96 K, 5997.9 kPa | 52.996 | –
374.96 K, 5999 kPa | – | 53.019
374.96 K, 7996.5 kPa | 70.138 | –
374.96 K, 8024.2 kPa | – | 70.391
374.96 K, 9996 kPa | 86.957 | –
374.96 K, 9997.9 kPa | – | 86.999
374.96 K, 11988 kPa | – | 103.381
374.96 K, 11996 kPa | 103.411 | –
374.96 K, 13993 kPa | – | 119.504
374.96 K, 13995 kPa | 119.477 | –
374.96 K, 15990 kPa | 135.101 | 135.151
374.96 K, 17987 kPa | – | 150.362
374.96 K, 17988 kPa | 150.312 | –
374.96 K, 18988 kPa | – | 157.82
374.96 K, 19817 kPa | 163.859 | –
374.96 K, 19971 kPa | – | 165.047
400.02 K, 984.4 kPa | – | 8.268
400.02 K, 997.16 kPa | – | 8.375
400.02 K, 1934.5 kPa | 16.2 | –
400.02 K, 1975.5 kPa | – | 16.545
400.02 K, 2994.3 kPa | – | 24.985
400.02 K, 3986.3 kPa | 33.151 | –
400.02 K, 3997.3 kPa | – | 33.254
400.02 K, 4997.1 kPa | – | 41.415
400.02 K, 5996.1 kPa | – | 49.523
400.02 K, 5998 kPa | 49.518 | –
400.02 K, 7005.5 kPa | – | 57.622
400.02 K, 7994.6 kPa | – | 65.495
400.02 K, 7996.6 kPa | 65.491 | –
400.02 K, 8987 kPa | – | 73.307
400.02 K, 9895.5 kPa | – | 80.402
400.02 K, 9973.2 kPa | 80.982 | –
400.02 K, 11025 kPa | – | 89.118
400.02 K, 11992 kPa | 96.459 | –
400.02 K, 11994 kPa | – | 96.505
400.02 K, 12991 kPa | – | 104.017
400.02 K, 13990 kPa | 111.428 | 111.464
400.02 K, 14988 kPa | – | 118.8
400.02 K, 15986 kPa | 126.014 | 126.048
400.02 K, 16227 kPa | – | 127.785
400.02 K, 17982 kPa | – | 140.257
400.02 K, 17985 kPa | 140.246 | –
400.02 K, 19027 kPa | 147.507 | –
400.03 K, 18458 kPa | – | 143.591

From the NIST ThermoML archive (doi:10.1021/je2007764)
